The record followed here is PMC5976936 (2018).

Experiment [1] deals with G4mod1 (DNA, G4, 5-hydroxymethylcytosine at 7) CCGGGGCGGGCCGGGGGCGGGGTC
The experiment can be described thus: ECD thermal melting. To be noted: KCl concentration not stated for this experiment; 50 mM Tris-HCl pH 7.4; 10 µM TMPyP4, 5 µM DNA.

For experiment [2], the system named is G4_1-4 (DNA, G4) CCGGGGCGGGCCGGGGGCGGGGTC
Briefly: ECD thermal melting. Particulars: KCl concentration not stated for this experiment; 50 mM Tris-HCl pH 7.4; 10 µM TMPyP4, 5 µM DNA.

In the case of `C[n+]1ccc(-c2c3nc(c(-c4cc[n+](C)cc4)c4ccc([nH]4)c(-c4cc[n+](C)cc4)c4nc(c(-c5cc[n+](C)cc5)c5ccc2[nH]5)C=C4)C=C3)cc1`, the ΔTM in experiment [1] and in experiment [2] was 12 °C in each case.
